Data as given in patent US11149277B2, “Method of producing enriched exosomes” (National Health Research Institutes, priority 2016, dated 2021).

Assays:
NAMECs [1] = experiment: NanoSight Nanoparticle Tracking Analysis of CM-P4 fractions of NAMEC culture; type: cell-based, human
Source text: FIG. 1 includes a TEM image and a graph. (A) is a TEM image of the P4 medium fraction of NAMECs treated with GW627368X (GW) for 4 days. Scale bar, 1 μm. (B) is a graph showing the number of particles in the CM-P4 fractions of NAMEC culture counted by using NanoSight Nanoparticle Tracking analysis. Top panel: Quantification of exosome release is shown as the ratio of [P4 GAPDH marker level]/[cell number]. Data are means±SEM (n=3). *P≤0.05. **P≤0.005. Bottom table: Quantification of exosome release is shown as the number of particles of the CM-P4 fractions released per cell measured by nanoparticle tracking analysis.
(§1) The isolated human mammary epithelial stem cells (NAMECs) were cultured in mammary epithelial cell basal medium (250 ml MCDB-170, 250 ml DMEM-F12, 1.2 g sodium bicarbonate, 2.5 μg EGF, 0.25 mg Hydrocortisone, 2.5 mg insulin, 35 mg BPE) with or without containing EP4 antagonist, i.e., GW627368X (GW) at 1 μg/ml, or AH23848 (AH) at 4 μg/ml, for 4 days. The culture medium was supplied with 0.5 μg/ml of GW or 2 μg/ml of AH23848 at the third day of the culturing period. For the induction of EP4 antagonist-induced exosomes from mouse mammary epithelial cells, cells were cultured in a medium containing 10 μg/ml of GW for 4 days.
The culture media were centrifuged at 300 g for 5 min to remove cells (P1), at 2,000 g for 20 min (P2), then at 10,000 g for 30 min (P3) all at 4° C. Dead cells and cell debris were removed at 300 g (P1) and 1200 g (P2). Finally, exosomes (P4) were separated from the supernatant by centrifugation at 110,000 g for 60 min. The P4 exosome pellet was washed once in PBS and then re-suspended in PBS for further application.

NAMECs [2] = experiment: Western blot of exosome markers and proteins in CM-P4 fractions of NAMECs; type: cell-based, human
Source text: FIG. 2 includes graphs and blots showing analyses of GW-treated NAMEC P4 fractions. CM-P4 GW-treated NAMECs were collected and subjected to (A) NanoSight Nanoparticle Tracking Analysis (NTA) and (B) Dynamic Light Scattering/Zeta Potential Analysis (DLS). […] D: particle diameter. RN: relative number. (C) is a blot showing the amounts of the CD44 stem cell marker and the CD81, CD9, TSG101, Alix, HSP70 and GAPDH exosome markers measured in the indicated CM-P4 fractions and cell lysates. The culture media and cell lysates were collected from the same number of NAMECs treated with vehicle (Crl), GW627368X (GW) or PGE2 (1 μM) for 4 days. (D) is a blot showing the amounts of the GAPDH and CD81 exosome markers and the CD44 stem cell marker measured in the CM-P4 fraction of NAMECs (CD44hi/CD24− stem cells) or CD44lo/CD24+ non-stem cells (HMLE cells) treated with vehicle (Crl) or GW for 2 days. 1×: P4 exosome fraction released by 1×10^6 cells; 2×: P4 exosome fraction released by 2×10^6 cells. […] (E) is a blot showing that the CD44 stem cell marker and GAPDH and CD81 exosome markers were measured in the indicated P4 conditioned medium fractions of NAMECs treated with vehicle (Crl), GW627368X (GW, 1 μg/ml), AH23848 (EP4 antagonist; 0.4, 2, 4 μg/ml), or AH6809 (EP1/2/3 antagonist; 0.8, 4, 8 μg/ml). (F) is a blot showing the HSP70, GAPDH and CD81 exosome markers measured in the indicated CM-P4 of NAMECs, NAMEC-shEP4-1 cells, and NAMEC-shEP4-2 cells treated with vehicle or with doxycycline (Dox, 2 μg/ml) (top panel). Doxyclycline (Dox) induced the production EP4 shRNA in NAMEC-shEP4 cells (bottom panel).
The P4 exosome fractions and cell lysates were collected from NAMECs treated with vehicle (Crl), GW627368X (GW), or PGE2 for 4 days. 1×: P4 exosome fraction released by 2.5×10^5 cells; 5×: P4 exosome fraction released by 12.5×10^5 cells. Hg: Hg-integrin β1, Lg: Lg-integrin β1, H: H-integrin α6, L: L-integrin α6, pg: pg-LRP6, g: g-LRP6, Ng: Ng-LRP6.
as §1
The culture media were centrifuged at 300 g for 5 min to remove cells (P1), at 2,000 g for 20 min (P2), then at 10,000 g for 30 min (P3) all at 4° C. Dead cells and cell debris were removed at 300 g (P1) and 1200 g (P2). […]

With CCOc1c2c(c(OCC)c3ccccc13)C(=O)N(c1ccc(CC(=O)NS(=O)(=O)c3ccccc3)cc1)C2 [GW627368X] the “concentration of released membrane vesicles” value (NAMECs [1]; CM-P4 fraction, 4 days, PGE2 1 μM) was ~5.4×10^4 particle/cell, the “release of membrane vesicles compared to untreated and PGE2-treated NAMECs” value (NAMECs [1]; particle numbers in CM-P4) was “significantly triggered the release of membrane vesicles” and the “amount of total exosomal proteins released vs vehicle or PGE2” value (NAMECs [2]; 4 days treatment) was “much greater”. For the same compound, the “exosome release by exosome markers in CM-P4 fractions” value (NAMECs [2]; AH23848 0.4, 2, 4 μg/ml, AH6809 0.8, 4, 8 μg/ml, GW 1 μg/ml) was “Large amounts”.
